Data: ChEMBL document CHEMBL1201862, “PubChem BioAssay data set” (2004)
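Following 48 hours of exposure in 96-well plates, responses at five concentrations were used to interpolate endpoints linearly. At the GI50, growth is halved.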 Active and inactive are the calls of the source. Rule as the data show it: active = GI50 up to about 1.1 µM and inactive = higher.

Columns and labels:
Experiment in all cases: inhibition of tumour cell growth, NCI panel, 48 h
COLO 205 = test system: COLO 205
DMS-273 = test system: DMS-273
K562 = test system: K562
Hs-578T = test system: Hs-578T
UACC-62 = test system: UACC-62
SF-539 = test system: SF-539
IGROV-1 = test system: IGROV-1
DU-145 = test system: DU-145
SNB-78 = test system: SNB-78
OVCAR-3 = test system: OVCAR-3
PC-3 = test system: PC-3
NCI-H23 = test system: NCI-H23
ACHN = test system: ACHN
HOP-92 = test system: HOP-92
HL-60 = test system: HL-60
MCF7 = test system: MCF7
RPMI-8226 = test system: RPMI-8226
SNB-75 = test system: SNB-75
HCC 2998 = test system: HCC 2998
MDA-N = test system: MDA-N
CAKI-1 = test system: CAKI-1
NCI-H522 = test system: NCI-H522
LXFL 529 = test system: LXFL 529
HCT-116 = test system: HCT-116
SR = test system: SR
LOX IMVI = test system: LOX IMVI
MOLT-4 = test system: MOLT-4
NCI/ADR-RES = test system: NCI/ADR-RES
786-0 = test system: 786-0
HOP-18 = test system: HOP-18
KM12 = test system: KM12
SF-268 = test system: SF-268
KM-20L2 = test system: KM-20L2
SW-620 = test system: SW-620
OVCAR-8 = test system: OVCAR-8
RXF 393 = test system: RXF 393
EKVX = test system: EKVX
A498 = test system: A498
NCI-H226 = test system: NCI-H226
MDA-MB-231 = test system: MDA-MB-231
MDA-MB-435 = test system: MDA-MB-435
UACC-257 = test system: UACC-257
SF-295 = test system: SF-295
OVCAR-4 = test system: OVCAR-4
SN12C = test system: SN12C
NCI-H460 = test system: NCI-H460
HCT-15 = test system: HCT-15
T47D = test system: T47D
CCRF-CEM = test system: CCRF-CEM
RXF 631 = test system: RXF 631
SNB-19 = test system: SNB-19
HT-29 = test system: HT-29
BT-549 = test system: BT-549
U-251 = test system: U-251
A549 = test system: A549
Malme-3M = test system: Malme-3M
XF498 = test system: XF498
TK-10 = test system: TK-10
SK-MEL-28 = test system: SK-MEL-28
DLD-1 = test system: DLD-1
SK-MEL-2 = test system: SK-MEL-2
M14 = test system: M14
M19-MEL = test system: M19-MEL
SK-OV-3 = test system: SK-OV-3
DMS-114 = test system: DMS-114
OVCAR-5 = test system: OVCAR-5
UO-31 = test system: UO-31
SK-MEL-5 = test system: SK-MEL-5
HOP-62 = test system: HOP-62

Measured: GI50

O=C(CCBr)N1CCN(C(=O)CCBr)CC1 [PIPOBROMAN]
inactive: COLO 205 92.3 µM | DMS-273 28.8 µM | K562 131 µM | Hs-578T 190 µM | UACC-62 18 µM | SF-539 62.5 µM | IGROV-1 97.5 µM | DU-145 64.6 µM | SNB-78 114 µM | OVCAR-3 96.6 µM | PC-3 113 µM | NCI-H23 56.4 µM | ACHN 29 µM | HOP-92 126 µM | HL-60 13.7 µM | MCF7 52.4 µM | RPMI-8226 98.4 µM | SNB-75 71.4 µM | HCC 2998 69.3 µM | MDA-N 89.9 µM | CAKI-1 47.9 µM | NCI-H522 63.2 µM | LXFL 529 71.6 µM | HCT-116 71.3 µM | SR 8.04 µM | LOX IMVI 48.3 µM | MOLT-4 13.4 µM | NCI/ADR-RES 81.8 µM | 786-0 57.9 µM | HOP-18 121 µM | KM12 > 93.5 µM | SF-268 39.3 µM | KM-20L2 119 µM | SW-620 89.9 µM | OVCAR-8 86.3 µM | RXF 393 68.2 µM | EKVX 85.7 µM | A498 80.7 µM | NCI-H226 84.9 µM | MDA-MB-231 113 µM | MDA-MB-435 105 µM | UACC-257 91 µM | SF-295 57.3 µM | OVCAR-4 86.9 µM | SN12C 42.6 µM | NCI-H460 11.9 µM | T47D 106 µM | CCRF-CEM 15.1 µM | RXF 631 55.1 µM | SNB-19 80.2 µM | HT-29 103 µM | BT-549 61.8 µM | U-251 55 µM | A549 43.9 µM | Malme-3M 101 µM | XF498 66.7 µM | TK-10 244 µM | SK-MEL-28 99.8 µM | DLD-1 90.2 µM | SK-MEL-2 107 µM | M14 57.7 µM | M19-MEL 86.9 µM | SK-OV-3 105 µM | DMS-114 50.6 µM | OVCAR-5 103 µM | UO-31 120 µM | SK-MEL-5 64.1 µM | HOP-62 60.3 µM
83.8 µM: HCT-15

CC(=O)O[C@H]1C(=O)[C@@]2(C)C(C(OC(=O)c3ccccc3)[C@]3(O)C[C@H](OC(=O)C(OC(=O)CCCC(=O)NCCCN(C)C)C(NC(=O)c4ccccc4)c4ccccc4)C(C)=C1C3(C)C)C1(OC(C)=O)COC1C[C@@H]2O (stereo partly drawn)
0.406 µM: HCT-15
inactive: SNB-78 2.49 µM | HOP-92 2.19 µM | NCI/ADR-RES 5.02 µM | OVCAR-4 8.71 µM
active: COLO 205 < 0.01 µM | DMS-273 < 0.01 µM | K562 < 0.01 µM | Hs-578T < 0.01 µM | UACC-62 < 0.01 µM | SF-539 < 0.01 µM | IGROV-1 0.0138 µM | DU-145 0.0105 µM | OVCAR-3 < 0.01 µM | PC-3 < 0.01 µM | NCI-H23 < 0.01 µM | ACHN 0.652 µM | HL-60 < 0.01 µM | MCF7 < 0.01 µM | RPMI-8226 < 0.01 µM | SNB-75 < 0.01 µM | HCC 2998 < 0.01 µM | MDA-N < 0.01 µM | CAKI-1 0.859 µM | NCI-H522 < 0.01 µM | LXFL 529 < 0.01 µM | HCT-116 < 0.01 µM | SR < 0.01 µM | LOX IMVI < 0.01 µM | MOLT-4 < 0.01 µM | 786-0 0.0134 µM | HOP-18 0.916 µM | KM12 < 0.01 µM | SF-268 0.0109 µM | KM-20L2 < 0.01 µM | SW-620 < 0.01 µM | OVCAR-8 < 0.01 µM | RXF 393 0.0171 µM | EKVX 0.262 µM | A498 0.0607 µM | NCI-H226 0.495 µM | MDA-MB-231 < 0.0125 µM | MDA-MB-435 < 0.01 µM | UACC-257 0.0143 µM | SF-295 0.02 µM | SN12C < 0.0122 µM | NCI-H460 < 0.01 µM | T47D 0.149 µM | CCRF-CEM < 0.01 µM | RXF 631 0.0355 µM | SNB-19 0.0152 µM | HT-29 < 0.01 µM | BT-549 0.0101 µM | U-251 < 0.01 µM | A549 < 0.01 µM | Malme-3M < 0.01 µM | XF498 < 0.01 µM | TK-10 0.0425 µM | SK-MEL-28 < 0.01 µM | DLD-1 0.0194 µM | SK-MEL-2 < 0.01 µM | M14 < 0.01 µM | M19-MEL < 0.01 µM | SK-OV-3 0.0141 µM | DMS-114 < 0.01 µM | OVCAR-5 < 0.0139 µM | UO-31 1.02 µM | SK-MEL-5 < 0.01 µM | HOP-62 0.016 µM
